The values that follow come from US12303545B2 (priority 2023, dated 2025).

≈ marks a conversion by molar mass, not a printed value. Where two headings read alike, the source gives them in different places. Numbered stars: 1 amine (or outer) side, 2 acyl side, 3 side chain; on linkers, the order of the positions; unused ones are H or OH. Bridge positions count the residues as written; N and C are the ends. Ends that are not written are not given here. Peptide text beside a SMILES is read from it. X1 = O=C(NC[*:1])NC[*:2]

Data set [1] concerns BCG bacteria. Kind of data set: microbe, parasite or virus in culture. The settings on record: Mycobacterium tuberculosis variant bovis BCG.
A short description of the next data set: in vitro. The settings on record: mouse.
Another data set concerns BCG. In kind it is cell-based, attenuated Mycobacterium bovis. Conditions: treated as in Example 5.
Data set [2] relates to BCG bacteria.
Data set [3] has as its system trypsin. Conditions: trypsin 5 μg/mL.
Description: (§1) A 4 mg/mL SAH1 solution and a 10 μg/mL trypsin solution each were prepared with PBS (pH 7.4) as a solvent. 250 μL of the trypsin solution was added to 250 μL of the SAH1 solution, and a reaction was conducted in an ice bath. A sample was collected at different time points after the reaction to determine the decomposition of SAH1 by RP-HPLC. RP-HPLC conditions were as follows: A C18 reversed-phase Bio-Rad analytical column was adopted: 250× 4 mm, a pore size: 30 nm, and a particle size: 7 μm. At 0 min to 40 min, linear gradient elution was conducted with 10% to 90% acetonitrile aqueous solutions, with 0.1% TFA (w/v) in both acetonitrile and water. A flow rate was 1.2 mL/min.
(§2) In addition, with the same method as above, the SAH1 aqueous solution was replaced with a 4 mg/mL BMAP-18 aqueous solution to detect the hydrolysis of BMAP-18 by trypsin.
Data set [4] has as its system trypsin. Kind of data set: in vitro. Conditions: isolated enzyme trypsin, pH 7.4.
Description: as §1, §2

Turning to `CC[C@@H](CO)NCCN[C@@H](CC)CO` [Ethambutol], the MIC against BCG bacteria [1] was found to be 800 µM (≈ 163 µg/mL).

Compound `NNC(=O)c1ccncc1` [Isoniazid] yielded an MIC with BCG bacteria [1] of 800 µM (≈ 110 µg/mL).

In turn, `CO[C@H]1/C=C/O[C@@]2(C)Oc3c(C)c(O)c4c(O)c(c(/C=N/N5CCN(C)CC5)c(O)c4c3C2=O)NC(=O)/C(C)=C\C=C\[C@H](C)[C@H](O)[C@@H](C)[C@@H](O)[C@@H](C)[C@H](OC(C)=O)[C@@H]1C` [Rifampicin] returned an MIC against BCG bacteria [1] of 400 µM (≈ 329 µg/mL).

Consider `CC(C)CC(NC(=O)C(CCCCN)NC(=O)C(CCCCN)NC(=O)C(Cc1ccccc1)NC(=O)C(CC(C)C)NC(=O)C(CCCCN)NC(=O)C(CCCCN)NC(=O)C(Cc1ccccc1)NC(=O)C(CCCCN)NC(=O)C1CSCNC(=O)NCSCC(NC(=O)C(Cc2ccccc2)NC(=O)C(CCCNC(=N)N)NC(=O)CN)C(=O)NC(CCCNC(=N)N)C(=O)NC(Cc2ccccc2)C(=O)NC(CCCNC(=N)N)C(=O)N1)C(=O)NC(CO)C(=O)O` (stereo not drawn) [SAH1] (H-GRFCRFRCKFKKLFKKLS-OH; linker 4-8 via X1; configuration not given here), for which 300 µM corresponded to half-maximal inhibition in “in vitro” (IC50 at 24 h). For the same compound, in the data set on BCG, the “impact on cell membrane and intracellular structure of BCG (TEM)” value is “largely missed, resulting in cavities and bacterial death”. For the same compound, the MIC with BCG bacteria [2] (BCG bacteria, 37° C. for 7 d, then resazurin 2 d, 7H9 medium) was 12.5 µM (≈ 29.7 µg/mL). In addition, the “Peak area (RP-HPLC)” value is reported as 274.44 in the data set with trypsin [3] (reaction time 0 min), 185.49 with trypsin [3] (reaction time 15 min), 125.94 in the data set on trypsin [3] (reaction time 30 min) and 82.92 in the data set on trypsin [3] (reaction time 60 min). In addition, the Polypeptide residue with trypsin [3] (reaction time 0 min) came to 100%; with trypsin [3] (reaction time 15 min), 67.59%; in the data set on trypsin [3] (reaction time 30 min), 45.89%; in the data set on trypsin [3] (reaction time 60 min), 30.21%. The amount remaining at 0.25 h, 2 mg/mL in the data set on trypsin [4] was determined as 67.6%. In addition, in the data set on trypsin [4], the fraction remaining at 1 h, 2 mg/mL was 30.2%.

In the case of “GRFKRFRKKFKKLFKKLS-OH [BMAP-18, G-R-F-K-R-F-R-K-K-F-K-K-L-F-K-K-L-S-OH]”, the IC50 at 24 h in “in vitro” turned out to be 150 µM. Further, in the data set on BCG bacteria [2], the MIC was determined as 300 µM and the “antibacterial ability relative to SAH1” value is listed as “one twenty-fourth”. In addition, in the data set on trypsin [3] (reaction time 0 min), the “Peak area (RP-HPLC)” value worked out at 254.43 and the Polypeptide residue is reported as 100%. Further, in the data set with trypsin [3] (reaction time 15 min), the “Peak area (RP-HPLC)” value was determined as 45.20 and the Polypeptide residue turned out to be 17.76%. In the data set on trypsin [3] (reaction time 30 min), the “Peak area (RP-HPLC)” value is 0.02 and the Polypeptide residue entry is “almost completely hydrolyzed”. Also, in the data set on trypsin [4], the share remaining at 0.25 h, 2 mg/mL was 17.8% and the fraction remaining at 0.5 h, 2 mg/mL stood at 0.01%.
